Converted amounts (≈) assume the structure as drawn. Where two headings read alike, the source gives them in different places.
Legend:
Ent. cloacae MA2646 = experiment: in vitro antibacterial activity, microtitration dilution (MIC), Ent. cloacae MA2646; type: cell-based; conditions: Enterobacter cloacae, read-out: minimum inhibiting concentration (MIC)
Procedure, shortened: (§1)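 Microtitration dilution method used to obtain minimum inhibitory concentrations, expressed as μg/mL.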

Esch. coli Vogel [1] = experiment: in vitro antibacterial activity, microtitration dilution (MIC), Esch. coli Vogel; type: cell-based; conditions: Escherichia coli, read-out: minimum inhibiting concentration (MIC)
Procedure, shortened: as §1

Klebs. pneumoniae MGH-2 = experiment: in vitro antibacterial activity, microtitration dilution (MIC), Klebs. pneumoniae MGH-2; type: cell-based; conditions: Klebsiella pneumoniae, MGH2, read-out: minimum inhibiting concentration (MIC)
Procedure, shortened: as §1

Prot. rettgeri M 1771 = experiment: in vitro antibacterial activity, microtitration dilution (MIC), Prot. rettgeri M 1771; type: cell-based; conditions: Providencia rettgeri, M1771, read-out: minimum inhibiting concentration (MIC)
Procedure, shortened: as §1

Pseud. aeruginosa UI-18 [2] = experiment: in vitro antibacterial activity, microtitration dilution (MIC), Pseud. aeruginosa UI-18; type: cell-based; conditions: Pseudomonas aeruginosa, UI18, read-out: minimum inhibiting concentration (MIC)
Procedure, shortened: as §1

Staph. aureus H 228 = experiment: in vitro antibacterial activity, microtitration dilution (MIC), Staph. aureus H 228; type: cell-based; conditions: Staphylococcus aureus, H228, read-out: minimum inhibiting concentration (MIC)
Procedure, shortened: as §1

Strep. faecalis MGH-2 = experiment: in vitro antibacterial activity, microtitration dilution (MIC), Strep. faecalis MGH-2; type: cell-based; conditions: Enterococcus faecalis, MGH2, read-out: minimum inhibiting concentration (MIC)
Procedure, shortened: as §1

Strep. pheumoniae SV-1 [3] = experiment: in vitro antibacterial activity, microtitration dilution (MIC), Strep. pneumoniae SV-1; type: cell-based; conditions: Streptococcus pneumoniae, SV1, read-out: minimum inhibiting concentration (MIC)
Procedure, shortened: as §1

Strep. pyogenes C-203 [4] = experiment: in vitro antibacterial activity, microtitration dilution (MIC), Strep. pyogenes C-203; type: cell-based; conditions: Streptococcus pyogenes, C203, read-out: minimum inhibiting concentration (MIC)
Procedure, shortened: as §1

Esch. coli Vogel [5] = experiment: median protective dose in mice given lethal systemic infections, Esch. coli Vogel; type: in vivo; conditions: Escherichia coli, single dose at time of challenge, read-out: median protective dose (PD50)
Procedure, shortened: (§2)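 Mice given lethal systemic infections received single compound doses at time of challenge; PD50 (mg/kg) is the median protective dose.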

Pseud. aeruginosa UI-18 [6] = experiment: median protective dose in mice given lethal systemic infections, Pseud. aeruginosa UI-18; type: in vivo; conditions: Pseudomonas aeruginosa, single dose at time of challenge, read-out: median protective dose (PD50)
Method: (§3) The in vivo activity is obtained when the compounds are tested according to the procedure of Miller, et al (Proc. Soc. Exp. Biol. Med. 57, 261, 1944). The median protective dose (PD50) was determined in mice given lethal systemic infections. Single doses of compound were given at time of challenge.
(§4) By use of the above methods, the following minimum inhibiting concentration values (MICs in μg/mL), PD50 's in mg/kg, no effect phototoxicity dose in mg/kg and the cytotoxicity IC50 in μg/mL were obtained for representative enantiomers of the invention and compounds of the prior art as shown in the table.
(§5) The in vivo data as PD50 s are reported below the line of MICs for the same compound.

Strep. pheumoniae SV-1 [7] = experiment: median protective dose in mice given lethal systemic infections, Strep. pneumoniae SV-1; type: in vivo; conditions: Streptococcus pneumoniae, single dose at time of challenge, read-out: median protective dose (PD50)
Method: as §3, §4, §5

Strep. pyogenes C-203 [8] = experiment: median protective dose in mice given lethal systemic infections, Strep. pyogenes C-203; type: in vivo; conditions: Streptococcus pyogenes, single dose at time of challenge, read-out: median protective dose (PD50)
Procedure, shortened: as §2

in vivo = experiment: in vivo; parameters: species or system mice; conditions: mouse, po
Method: The phototoxicity data is obtained using depilated mice. The compound was administered orally each day for four successive days, followed each day by 3 hours of UVA radiation. The mice were examined for any positive signs (redness, erythema) relative to control animals. The no effect dose and the 50% effect dose were determined. By use of the above methods, the following minimum inhibiting concentration values (MICs in μg/mL), PD50 's in mg/kg, no effect phototoxicity dose in mg/kg and the cytotoxicity IC50 in μg/mL were obtained for representative enantiomers of the invention and compounds of the prior art as shown in the table.

[9] = cytotoxicity, hamster V-79 cells, colony reduction; type: cell-based; conditions: 3 hours treatment, colonies counted after 5 days, read-out: Cytotox (cytotoxicity IC50)
Procedure, shortened: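 Cells were grown overnight, exposed to drug for 3 h, washed and replated. Colonies were counted after 5 days, and IC50 was taken as the concentration reducing colonies by 50% versus control.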

Staph. aureus UC-76 = experiment: in vitro antibacterial activity, microtitration dilution (MIC), Staph. aureus UC-76; type: cell-based; conditions: Staphylococcus aureus, UC76, read-out: minimum inhibiting concentration (MIC)
Procedure, shortened: as §1

## C[C@H](N)[C@@H]1CCN(c2nc3c(cc2F)c(=O)c(C(=O)O)cn3C2CC2)C1 [Example 7, 3R,1S-1-cyclopropyl-6-fluoro-7-[3-(1-aminoethyl)-1-pyrrolidinyl]-1,4-dihydro-4-oxo-1,8-naphthyridine-3-carboxylic acid]
Ent. cloacae MA2646
  MIC: 0.025 µg/mL (≈ 0.0694 µM)
Esch. coli Vogel [1]
  MIC: 0.025 µg/mL (≈ 0.0694 µM)
Klebs. pneumoniae MGH-2
  MIC: 0.05 µg/mL (≈ 0.139 µM)
Prot. rettgeri M 1771
  MIC: 0.1 µg/mL (≈ 0.277 µM)
Pseud. aeruginosa UI-18 [2]
  MIC: 0.4 µg/mL (≈ 1.11 µM)
Staph. aureus H 228
  MIC: 0.025 µg/mL (≈ 0.0694 µM)
Strep. faecalis MGH-2
  MIC: 0.025 µg/mL (≈ 0.0694 µM)
Strep. pheumoniae SV-1 [3]
  MIC: 0.006 µg/mL (≈ 0.0166 µM)
Strep. pyogenes C-203 [4]
  MIC: 0.013 µg/mL (≈ 0.0361 µM)
Esch. coli Vogel [5]; PO
  ED50: 2 mg/kg
Esch. coli Vogel [5]; SC
  ED50: 0.4 mg/kg
Pseud. aeruginosa UI-18 [6]; UI18, PO
  ED50: 15 mg/kg
Pseud. aeruginosa UI-18 [6]; UI18, SC
  ED50: 4 mg/kg
Strep. pheumoniae SV-1 [7]; SV1, PO
  ED50: 3 mg/kg
Strep. pheumoniae SV-1 [7]; SV1, SC
  ED50: 1 mg/kg
Strep. pyogenes C-203 [8]; C203, PO
  ED50: 3 mg/kg
Strep. pyogenes C-203 [8]; C203, SC
  ED50: 1 mg/kg
In vivo
  NOAEL at 96 h: 30 mg/kg
[9]
  CC50 at 3 h: 33 µg/mL (≈ 91.6 µM)

## C[C@@H](N)[C@@H]1CCN(c2nc3c(cc2F)c(=O)c(C(=O)O)cn3C2CC2)C1 [Example 8]
Ent. cloacae MA2646
  MIC: 0.05 µg/mL (≈ 0.139 µM)
Esch. coli Vogel [1]
  MIC: 0.05 µg/mL (≈ 0.139 µM)
Klebs. pneumoniae MGH-2
  MIC: 0.1 µg/mL (≈ 0.277 µM)
Prot. rettgeri M 1771
  MIC: 0.4 µg/mL (≈ 1.11 µM)
Pseud. aeruginosa UI-18 [2]
  MIC: 0.8 µg/mL (≈ 2.22 µM)
Staph. aureus H 228
  MIC: 0.05 µg/mL (≈ 0.139 µM)
Staph. aureus UC-76
  MIC: 0.06 µg/mL (≈ 0.166 µM)
Strep. faecalis MGH-2
  MIC: 0.05 µg/mL (≈ 0.139 µM)
Strep. pheumoniae SV-1 [3]
  MIC: 0.006 µg/mL (≈ 0.0166 µM)
Strep. pyogenes C-203 [4]
  MIC: 0.013 µg/mL (≈ 0.0361 µM)
Esch. coli Vogel [5]; PO
  ED50: 6 mg/kg
Esch. coli Vogel [5]; SC
  ED50: 1 mg/kg
Pseud. aeruginosa UI-18 [6]; UI18, PO
  ED50: 35 mg/kg
Pseud. aeruginosa UI-18 [6]; UI18, SC
  ED50: 12 mg/kg
Strep. pheumoniae SV-1 [7]; SV1, PO
  ED50: 14 mg/kg
Strep. pheumoniae SV-1 [7]; SV1, SC
  ED50: 2 mg/kg
In vivo
  NOAEL at 96 h: 55 mg/kg
[9]
  CC50 at 3 h: 100 µg/mL (≈ 277 µM)

## C[C@@H](N)[C@H]1CCN(c2nc3c(cc2F)c(=O)c(C(=O)O)cn3C2CC2)C1 [Example 5, 3S,1R-1-cyclopropyl-6-fluoro-7-[3-(1-aminoethyl)-1-pyrrolidinyl]-1,4-dihydro-4-oxo-1,8-naphthyridine-3-carboxylic acid]
Ent. cloacae MA2646
  MIC: 0.05 µg/mL (≈ 0.139 µM)
Esch. coli Vogel [1]
  MIC: 0.05 µg/mL (≈ 0.139 µM)
Klebs. pneumoniae MGH-2
  MIC: 0.1 µg/mL (≈ 0.277 µM)
Prot. rettgeri M 1771
  MIC: 0.2 µg/mL (≈ 0.555 µM)
Pseud. aeruginosa UI-18 [2]
  MIC: 0.8 µg/mL (≈ 2.22 µM)
Staph. aureus H 228
  MIC: 0.2 µg/mL (≈ 0.555 µM)
Staph. aureus UC-76
  MIC: 0.025 µg/mL (≈ 0.0694 µM)
Strep. faecalis MGH-2
  MIC: 0.1 µg/mL (≈ 0.277 µM)
Strep. pheumoniae SV-1 [3]
  MIC: 0.05 µg/mL (≈ 0.139 µM)
Strep. pyogenes C-203 [4]
  MIC: 0.05 µg/mL (≈ 0.139 µM)
Esch. coli Vogel [5]; PO
  ED50: 4 mg/kg
Esch. coli Vogel [5]; SC
  ED50: 1 mg/kg
Pseud. aeruginosa UI-18 [6]; UI18, PO
  ED50: 23 mg/kg
Pseud. aeruginosa UI-18 [6]; UI18, SC
  ED50: 16 mg/kg
Strep. pheumoniae SV-1 [7]; SV1, PO
  ED50: 15 mg/kg
Strep. pheumoniae SV-1 [7]; SV1, SC
  ED50: 7 mg/kg
In vivo
  NOAEL at 96 h: > 100 mg/kg
[9]
  CC50 at 3 h: 84 µg/mL (≈ 233 µM)

Reference: US5563155A, “Individual stereosiomers of 7-[3-(aminoalkyl)-1-pyrrolidinyl]-quinolones and naphthyridones as antibacterial agents” (Warner-Lambert Company, priority 1995, dated 1996)
